Results as given in patent US11142515B2, “Pyrazolyl-ureas as kinase inhibitors” (RESPIVERT LIMITED, priority 2014, dated 2021).

Tests used:
d-U937 cells = experiment: Cell viability: MTT assay in differentiated U937 cells; type: cell-based, human; details: 10 μg/mL
Method: Differentiated U937 cells were pre-incubated with each test compound (final concentration 10 μg/mL in 200 μL media indicated below) under two protocols: the first for 4 h in 5% FCS RPMI1640 media and the second in 10% FCS RPMI1640 media for 24 h. The supernatant was replaced with new media (200 μL) and MTT stock solution (10 μL, 5 mg/mL) was added to each well. After incubation for 1 h the media were removed, DMSO (200 μL) was added to each well and the plates were shaken lightly for 1 h prior to reading the absorbance at 550 nm. The percentage loss of cell viability was calculated for each well relative to vehicle (0.5% DMSO) treatment. Consequently an apparent increase in cell viability for drug treatment relative to vehicle is tabulated as a negative percentage.

p38MAPKγ (MAPK12) = target: T1, p38MAPKγ (MAPK12) (Homo sapiens, UniProt P53778); experiment: p38 MAPKγ enzyme inhibition (Z-LYTE FRET); type: biochemical; details: Table 2B, unit inferred; read-out: p38 MAPKγ (Enzyme Profile)
T1 construct: purchased Life Technologies
T1 sequence (P53778 1-367): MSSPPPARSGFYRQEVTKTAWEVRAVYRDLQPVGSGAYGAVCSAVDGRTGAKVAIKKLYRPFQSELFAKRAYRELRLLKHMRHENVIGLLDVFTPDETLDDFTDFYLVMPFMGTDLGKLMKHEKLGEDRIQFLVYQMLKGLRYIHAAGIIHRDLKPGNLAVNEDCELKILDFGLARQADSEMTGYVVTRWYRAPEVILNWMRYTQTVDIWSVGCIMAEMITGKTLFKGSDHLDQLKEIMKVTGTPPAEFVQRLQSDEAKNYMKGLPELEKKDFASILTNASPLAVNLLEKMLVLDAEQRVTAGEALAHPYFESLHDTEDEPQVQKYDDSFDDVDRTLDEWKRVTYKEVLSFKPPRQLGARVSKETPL
Procedure, shortened: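 Z-LYTE read-out: after 1 h protease development, only non-phosphorylated peptide is cleaved, and the donor/acceptor (coumarin/fluorescein) ratio reports phosphorylation. Beforehand, enzyme and compound (stock concentrations 0.0012–40 μg/mL) were preincubated 2 h at RT, then the kinase reaction ran 1 h at RT with peptide and ATP (8 μM and 400 μM stocks).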

[1] = target: T2, p38 MAPKα isoform (MAPK14) (Homo sapiens, UniProt Q16539); experiment: p38 MAPKα enzyme inhibition (Z-LYTE FRET); type: biochemical; details: Table 2B, unit inferred; read-out: p38 MAPKα (Enzyme Profile)
T2 construct: purchased Life Technologies
Procedure, shortened: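 Recombinant human MAPK14 (40 ng/mL stock) was preincubated 2 h at RT with compound (stock dilutions 0.0012-40 μg/mL). The Z-LYTE FRET read-out used a MAPKAP-K2-derived peptide, and protease development for 1 h cleaved only non-phosphorylated peptide. Phosphorylation was calculated from the coumarin/fluorescein emission ratio.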

T2 sequence (Q16539 whole entry, canonical isoform): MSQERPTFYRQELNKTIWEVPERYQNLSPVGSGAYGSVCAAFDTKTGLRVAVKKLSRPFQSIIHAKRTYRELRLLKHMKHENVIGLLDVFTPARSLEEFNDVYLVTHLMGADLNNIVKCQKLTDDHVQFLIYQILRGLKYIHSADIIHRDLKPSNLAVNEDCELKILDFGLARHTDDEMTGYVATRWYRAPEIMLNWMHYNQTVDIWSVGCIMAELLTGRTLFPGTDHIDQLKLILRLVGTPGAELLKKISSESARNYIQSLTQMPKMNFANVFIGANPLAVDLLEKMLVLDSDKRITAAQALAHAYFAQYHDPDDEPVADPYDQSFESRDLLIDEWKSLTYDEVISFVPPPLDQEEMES

| Structure (SMILES) | MTT Assay Cell viability at time point indicated in d-U937 Cells, 4 h (d-U937 cells; 4 h) | MTT Assay Cell viability at time point indicated in d-U937 Cells, 24 h (d-U937 cells; 24 h) | IC50 (p38MAPKγ (MAPK12)) [nM] | IC50 [1] [nM] |
| --- | --- | --- | --- | --- |
| COCC(=O)Nc1cc(Oc2ccc(NC(=O)Nc3cc(C(C)(C)C)nn3-c3ccc(C)cc3)c3ccccc23)ccn1 [Reference Compound, N-(4-(4-(3-(3-tert-butyl-1-p-tolyl-1H-pyrazol-5-yl)ureido)naphthalen-1-yloxy)pyridin-2-yl)-2-methoxyacetamide, reference compound] | − (−ve and +ve indicate the value is below and above, respectively, the no significant effect threshold defined as 30% inhibition at 10 μg/mL at the time point indicated) | + (−ve and +ve indicate the value is below and above, respectively, the no significant effect threshold defined as 30% inhibition at 10 μg/mL at the time point indicated) |  |  |
| COCCN(CCOC)C(=O)c1cnc(Nc2cc(COc3ccc(NC(=O)Nc4cc(C(C)(C)C)nn4-c4ccc(C)cc4)c4ccccc34)ccn2)cn1 [Example 73] |  |  | 259 | 19 |
| COc1cccc(-n2nc(C(C)(C)C)cc2NC(=O)Nc2ccc(OCc3ccnc(Nc4cnc(CO)cn4)c3)c3ccccc23)c1 [Example 178, 1-(3-(tert-butyl)-1-(3-methoxyphenyl)-1H-pyrazol-5-yl)-3-(4-((2-((5-(hydroxy-methyl)pyrazin-2-yl)amino)pyridin-4-yl)methoxy)naphthalen-1-yl)urea] |  |  | 36 | 5.8 |
| CCCNC(=O)c1cnc(Nc2cc(COc3ccc(NC(=O)Nc4cc(C(C)(C)C)nn4-c4ccc(C)cc4)c4ccccc34)ccn2)cn1 [Example 192, 5-((4-(((4-(3-(3-(tert-butyl)-1-(p-tolyl)-1H-pyrazol-5-yl)ureido)naphthalen-1-yl)oxy)methyl)pyridin-2-yl)amino)-N-propylpyrazine-2-carboxamide] |  |  | > 14600 | 46 |
| COCCN(C)C(=O)c1cnc(Nc2cc(COc3ccc(NC(=O)Nc4cc(C(C)(C)C)nn4-c4ccc(C)cc4)c4ccccc34)ccn2)cn1 [Example 60] |  |  | 144 | 14 |
| Cc1ccc(-n2nc(C(C)(C)C)cc2NC(=O)Nc2ccc(OCc3ccnc(Nc4cnc(C(=O)N5CCNC(=O)CC5)cn4)c3)c3ccccc23)cc1 [Example 241, 1-(3-(tert-butyl)-1-(p-tolyl)-1H-pyrazol-5-yl)-3-(4-((2-((5-(5-oxo-1,4-diazepane-1-carbonyl)pyrazin-2-yl)amino)pyridin-4-yl)methoxy)naphthalen-1-yl)urea] |  |  | 48 | 3.4 |
| COC1CCN(C(=O)c2cnc(Nc3cc(COc4ccc(NC(=O)Nc5cc(C(C)(C)C)nn5-c5cccc(C)c5)c5ccccc45)ccn3)cn2)CC1 [Example 206, 1-(3-(tert-butyl)-1-(m-tolyl)-1H-pyrazol-5-yl)-3-(4-((2-((5-(4-methoxypiperidine-1-carbonyl)pyrazin-2-yl)amino)pyridin-4-yl)methoxy)naphthalen-1-yl)urea] |  |  | 517 | 22 |
| CSc1ccc(-n2nc(C(C)(C)C)cc2NC(=O)Nc2ccc(OCc3ccnc(Nc4cnccn4)c3)c3ccccc23)cc1 [Example 149, 1-(3-(tert-butyl)-1-(4-(methylthio)phenyl)-1H-pyrazol-5-yl)-3-(4-((2-(pyrazin-2-ylamino)pyridin-4-yl)methoxy)naphthalen-1-yl)urea] |  |  | > 15900 | 13 |
| Cc1ccc(-n2nc(C(C)(C)C)cc2NC(=O)Nc2ccc(OCc3ccnc(Nc4cnc(C(=O)N5C[C@H](O)[C@@H](O)C5)cn4)c3)c3ccccc23)cc1 [Example 247, 1-(3-(tert-butyl)-1-(p-tolyl)-1H-pyrazol-5-yl)-3-(4-((2-((5-((3S,4S)-3,4-dihydroxy-pyrrolidine-1-carbonyl)pyrazin-2-yl)amino)pyridin-4-yl)methoxy)naphthalen-1-yl)urea] |  |  | 61 | 7 |
| Cc1ccc(-n2nc(C(C)(C)C)cc2NC(=O)Nc2ccc(OCc3ccnc(Nc4cnc(C(=O)N5CC[C@@H](O)C5)cn4)c3)c3ccccc23)cc1 [Example 162, (R)-1-(3-(tert-butyl)-1-(p-tolyl)-1H-pyrazol-5-yl)-3-(4-((2-((5-(3-hydroxypyrrolidine-1-carbonyl)pyrazin-2-yl)amino)pyridin-4-yl)methoxy)naphthalen-1-yl)urea] |  |  | 37 | 4.7 |
| Cc1ccc(-n2nc(C(C)(C)C)cc2NC(=O)Nc2ccc(OCc3ccnc(Nc4cncc(NC(C)C)n4)c3)c3ccccc23)cc1 [Example 117, 1-(3-(tert-butyl)-1-(p-tolyl)-1H-pyrazol-5-yl)-3-(4-((2-((6-(isopropylamino)pyrazin-2-yl)amino)pyridin-4-yl)methoxy)naphthalen-1-yl) urea] |  |  | 150 | 16 |
| COc1ccc(-n2nc(C(C)(C)C)cc2NC(=O)Nc2ccc(OCc3ccnc(Nc4cnccn4)c3)c3ccccc23)cc1F [Example 148, 1-(3-(tert-butyl)-1-(3-fluoro-4-methoxyphenyl)-1H-pyrazol-5-yl)-3-(4-((2-(pyrazin-2-ylamino)pyridin-4-yl)methoxy)naphthalen-1-yl)urea] |  |  | 247 | 13 |
| COc1cccc(-n2nc(C(C)(C)C)cc2NC(=O)Nc2ccc(OCc3ccnc(Nc4cnccn4)c3)c3ccccc23)c1 [Example 142, 1-(3-(tert-butyl)-1-(3-methoxyphenyl)-1H-pyrazol-5-yl)-3-(4-((2-(pyrazin-2-ylamino)pyridin-4-yl)methoxy)naphthalen-1-yl) urea] |  |  | 78 | 5.7 |
| Cc1ccc(-n2nc(C(C)(C)C)cc2NC(=O)Nc2ccc(OCc3ccnc(Nc4cnc(C(=O)NCCN(C)C)cn4)c3)c3ccccc23)cc1 [Example 268, 5-((4-(((4-(3-(3-(tert-butyl)-1-(p-tolyl)-1H-pyrazol-5-yl)ureido)naphthalen-1-yl)oxy)methyl)pyridin-2-yl)amino)-N-(2-(dimethylamino)ethyl) pyrazine-2-carboxamide] |  |  | 74 | < 0.42 |
| COC1CN(C(=O)c2cnc(Nc3cc(COc4ccc(NC(=O)Nc5cc(C(C)(C)C)nn5-c5cccc(C)c5)c5ccccc45)ccn3)cn2)C1 [Example 224, 1-(3-(tert-butyl)-1-(m-tolyl)-1H-pyrazol-5-yl)-3-(4-((2-((5-(3-methoxyazetidine-1-carbonyl)pyrazin-2-yl)amino)pyridin-4-yl)methoxy)naphthalen-1-yl)urea] |  |  | > 14000 | 54 |
| Cc1ccc(-n2nc(C(C)(C)C)cc2NC(=O)Nc2ccc(OCc3ccnc(Nc4cncc(N(C)C)n4)c3)c3ccccc23)s1 [Example 111, 1-(3-(tert-butyl)-1-(5-methylthiophen-2-yl)-1H-pyrazol-5-yl)-3-(4-((2-((6-(dimethylamino)pyrazin-2-yl)amino)pyridin-4-yl)methoxy)naphthalen-1-yl)urea] |  |  | 125 | 33 |
| COCCNC(=O)c1cnc(Nc2cc(COc3ccc(NC(=O)Nc4cc(C(C)(C)C)nn4-c4ccc(OC)c(C)c4)c4ccccc34)ccn2)cn1 [Example 132, 5-((4-(((4-(3-(3-(tert-butyl)-1-(4-methoxy-3-methyl-phenyl)-1H-pyrazol-5-yl)ureido)naphthalen-1-yl)oxy)methyl)pyridin-2-yl)amino)-N-(2-methoxyethyl)pyrazine-2-carboxamide] |  |  | > 13700 | 11 |
| Cc1ccc(-n2nc(C(C)(C)C)cc2NC(=O)Nc2ccc(OCc3ccnc(Nc4cnc(C)c(C)n4)c3)c3ccccc23)cc1C [Example 146, 1-(3-(tert-butyl)-1-(3,4-dimethylphenyl)-1H-pyrazol-5-yl)-3-(4-((2-((5,6-dimethylpyrazin-2-yl)amino)pyridin-4-yl)methoxy)naphthalen-1-yl)urea] |  |  | 1550 | 69 |
